Measured values from patent publication US20060235222A1, “Indole-derivative modulators of steroid hormone nuclear receptors” (ELI LILLY AND COMPANY, priority 2003, published 2006).

What was measured:
[1] = target: T1, human MR (Homo sapiens, UniProt P08235); test: Mineralocorticoid Receptor Binding Assay (Method 1), [3H]-aldosterone competition; conditions: 0.5 nM [3H]-aldosterone, human MR expressed in Sf9 cells
T1 construct: The full length human MR gene is cloned from a human kidney or human brain cDNA library; inferred from own knowledge of the pAcHLT vector (N); made in house; host or cells: Sf9 insect cells (baculovirus)
T1 sequence (P08235 1-984): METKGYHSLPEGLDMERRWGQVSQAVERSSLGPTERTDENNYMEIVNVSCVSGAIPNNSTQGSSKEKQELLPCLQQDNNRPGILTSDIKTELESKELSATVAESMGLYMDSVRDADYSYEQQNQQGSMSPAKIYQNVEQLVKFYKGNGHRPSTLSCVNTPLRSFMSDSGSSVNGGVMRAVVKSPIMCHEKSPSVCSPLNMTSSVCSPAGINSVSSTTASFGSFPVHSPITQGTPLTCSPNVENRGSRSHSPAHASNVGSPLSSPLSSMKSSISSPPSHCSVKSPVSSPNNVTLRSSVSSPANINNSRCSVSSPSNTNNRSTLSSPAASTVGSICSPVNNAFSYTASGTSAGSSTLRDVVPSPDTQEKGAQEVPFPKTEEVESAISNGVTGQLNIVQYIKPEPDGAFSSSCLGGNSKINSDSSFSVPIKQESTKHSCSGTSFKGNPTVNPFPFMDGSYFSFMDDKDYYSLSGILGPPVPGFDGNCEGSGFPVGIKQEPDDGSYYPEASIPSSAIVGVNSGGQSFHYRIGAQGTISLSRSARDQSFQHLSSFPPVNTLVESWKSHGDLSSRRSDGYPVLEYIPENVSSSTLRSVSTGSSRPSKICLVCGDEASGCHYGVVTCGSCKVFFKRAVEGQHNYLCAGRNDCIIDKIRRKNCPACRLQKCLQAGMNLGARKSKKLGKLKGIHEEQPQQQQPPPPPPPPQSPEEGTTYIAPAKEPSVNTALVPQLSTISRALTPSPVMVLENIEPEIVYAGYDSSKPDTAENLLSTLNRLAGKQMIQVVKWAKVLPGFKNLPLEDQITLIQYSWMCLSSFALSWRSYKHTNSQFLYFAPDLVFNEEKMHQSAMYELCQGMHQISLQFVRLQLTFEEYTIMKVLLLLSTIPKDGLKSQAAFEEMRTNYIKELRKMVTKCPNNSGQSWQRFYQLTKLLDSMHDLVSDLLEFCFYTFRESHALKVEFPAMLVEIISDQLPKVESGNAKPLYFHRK
Outline: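 Full-length human MR expressed in Sf9 cells via baculovirus; lysate supernatant (about 20-25 μg protein) incubated with 0.5 nM [3H]-aldosterone and test compound for about 16 h at 4° C. Buffer was Tris/molybdate/phosphate/pyrophosphate with 10% glycerol, pH 7.5; filter-bound complex counted by scintillation.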

[2] = target: T2, human GR (glucocorticoid receptor) (Homo sapiens, UniProt P04150); test: Alternative Binding Assay Protocol (Method 2), 293-GR lysate, 3H-dexamethasone competition; conditions: 0.3 nM 3H-dexamethasone
T2 construct: expressed in transfected cells; host or cells: 293 cells
T2 sequence (P04150 1-777): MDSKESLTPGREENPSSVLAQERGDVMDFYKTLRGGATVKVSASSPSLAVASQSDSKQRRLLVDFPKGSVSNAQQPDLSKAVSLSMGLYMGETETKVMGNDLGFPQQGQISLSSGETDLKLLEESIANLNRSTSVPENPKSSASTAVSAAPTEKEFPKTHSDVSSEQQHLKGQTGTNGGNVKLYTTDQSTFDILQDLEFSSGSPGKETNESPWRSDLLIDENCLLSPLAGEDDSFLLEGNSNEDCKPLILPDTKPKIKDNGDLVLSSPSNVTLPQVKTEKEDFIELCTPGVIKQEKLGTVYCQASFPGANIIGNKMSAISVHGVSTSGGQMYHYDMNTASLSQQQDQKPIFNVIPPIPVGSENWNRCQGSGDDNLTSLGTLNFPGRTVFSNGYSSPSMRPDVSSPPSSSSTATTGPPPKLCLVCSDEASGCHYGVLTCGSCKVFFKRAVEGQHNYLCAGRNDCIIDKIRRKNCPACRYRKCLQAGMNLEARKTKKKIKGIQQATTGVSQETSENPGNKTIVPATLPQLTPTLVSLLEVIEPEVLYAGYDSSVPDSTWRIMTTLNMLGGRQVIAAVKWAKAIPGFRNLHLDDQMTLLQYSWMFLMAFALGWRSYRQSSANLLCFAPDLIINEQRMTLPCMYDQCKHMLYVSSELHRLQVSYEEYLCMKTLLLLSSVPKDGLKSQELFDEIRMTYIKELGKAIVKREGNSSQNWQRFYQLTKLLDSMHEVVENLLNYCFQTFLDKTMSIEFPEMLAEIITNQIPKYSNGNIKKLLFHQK
Protocol: Alternative Binding Assay Protocol for MR, GR, AR, and PR (Method 2):
Cell lysates from 293 cells overexpressing human GR (glucocorticoid receptor), AR (androgen receptor), MR (mineralocorticoid receptor) or PR (progesterone-receptor) are used for competition binding assays to determine Ki values for test compounds. […] Competing compounds are added at various concentraions in half-log increments. Non-specific binding is determined in the presence of 500 nM dexamethasone for GR binding, 500 nM aldosterone for MR binding, or 500 nM methyltrienolone for AR and PR binding. The binding reaction (140 μl) is incubated for overnight at 4° C., then 70 μl of cold charcoal-dextran buffer (containing per 50 ml of assay buffer, 0.75 g of charcoal and 0.25 g of dextran) is added to each reaction. Plates are mixed 8 minutes on an orbital shaker at 4° C. Plates are then centrifuged at 3,000 rpm at 4° C. for 10 minutes. An aliquot of 120 μl of the mix is transferred to another 96-well plate and 175 μl of Wallac Optiphase “Hisafe 3” scintillation fluid is added to each well. Plates are sealed and shaken vigorously on an orbital shaker. After an incubation of 2 hrs, plates are read in a Wallac Microbeta counter. […] The Kd for ^3H-dexamethasone for GR binding, ^3H-methyltrienolone for AR binding, ^3H-aldosterone for MR binding, or ^3H-methyltrienolone for PR binding, is determined by saturation binding. The IC50 values for compounds are converted to Ki using Cheng-Prusoff equation and the Kd determined by saturation binding assay.

[3] = target: T3, glucocorticoid receptor (Homo sapiens, UniProt P04150); test: Glucocorticoid Receptor Binding Assay (Method 1), [3H]-dexamethasone competition, A549 cell extract; conditions: 1.86 nM [3H]-dexamethasone, read-out: GR Ki (nM) Method 1
T3 construct: containing 50-200 ug of A549 cell extract and 1.86 nM; host or cells: A549 human lung epithelial cells
T3 sequence (P04150 1-777): T2 sequence (P04150 1-777)
Outline: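 Receptor source: sonicated extract of human A549 lung epithelial cells in glycerol/Tris-HCl pH 7.2 buffer with sodium molybdate. [3H]-dexamethasone competition run 16 h at 4 °C; unbound radioligand stripped with dextran-coated charcoal (8 min, RT) and receptor-bound radioactivity quantified by scintillation counting.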

SMILES: CCC(CC)(c1ccc(C(C)C)cc1)c1c[nH]c2c(NS(C)(=O)=O)cccc12 [Example 182]
- Ki [1]: < 500 nM
- Ki [2]: < 10000 nM

SMILES: CC1(c2c[nH]c3c(NS(C)(=O)=O)cccc23)CCCCc2ccccc21 (stereo not drawn) [Example 189]
- Ki [1]: < 500 nM
- Ki [2]: < 500 nM

SMILES: CCC(CC)(c1ccc2sc(C)nc2c1)c1c[nH]c2c(NS(C)(=O)=O)cccc12 [Example 190]
- Ki [1]: < 500 nM
- Ki [2]: < 500 nM

SMILES: CCC(CC)(c1ccc(N2CCOCC2)cc1)c1c[nH]c2c(NS(C)(=O)=O)cccc12 [Example 197]
- Ki [1]: < 500 nM
- Ki [2]: < 500 nM

SMILES: CCCC(c1ccc(F)cc1)(c1c[nH]c2c(NS(C)(=O)=O)cccc12)C1CC1 (stereo not drawn) [Example 179]
- Ki [1]: < 500 nM
- Ki [2]: < 500 nM

SMILES: CCCC(CCC)(c1ccc(OC)cc1)c1c[nH]c2c(NS(C)(=O)=O)cccc12 [Example 176]
- Ki [2]: < 500 nM

SMILES: CCC(CC)(c1ccc2oc(C)cc2c1)c1c[nH]c2c(NS(C)(=O)=O)cccc12 [Example 181]
- Ki [1]: < 500 nM
- Ki [2]: < 500 nM

SMILES: C[C@](c1ccc(F)cc1)(c1c[nH]c2c(NS(C)(=O)=O)cccc12)C1CC1 [Example 173]
- Ki [1]: < 500 nM
- Ki [2]: < 500 nM

SMILES: CCC(CC)(c1ccc2oc(C)nc2c1)c1c[nH]c2c(NS(C)(=O)=O)cccc12 [Example 191]
- Ki [1]: < 500 nM
- Ki [2]: < 1000 nM

SMILES: CS(=O)(=O)Nc1cccc2c(C3(c4ccccc4)CCOCC3)c[nH]c12 [Example 33, N-[3-(4-Phenyl-tetrahydro-pyran-4-yl)-1H-indol-7-yl]-methanesulfonamide]
- Ki [1]: < 500 nM
- Ki [3]: < 500 nM

SMILES: CC(c1ccccc1)(c1c[nH]c2c(NS(C)(=O)=O)cccc12)C1CC1 (stereo not drawn) [Example 178]
- Ki [1]: < 500 nM
- Ki [2]: < 500 nM

SMILES: CCCC(C)(c1ccsc1)c1c[nH]c2c(NS(C)(=O)=O)cccc12 (stereo not drawn) [Example 10, N-[3-(1-Methyl-1-thiophen-3-yl-butyl)-1H-indol-7-yl]-methanesulfonamide]
- Ki [1]: < 500 nM
- Ki [3]: < 500 nM

SMILES: CCC(CC)(c1cc2cccc(OC)c2o1)c1c[nH]c2c(NS(C)(=O)=O)cccc12 [Example 4, N-{3-[1-Ethyl-1-(7-methoxy-benzofuran-2-yl)-propyl]-1H-indol-7-yl}-methanesulfonamide]
- Ki [1]: < 500 nM
- Ki [3]: < 500 nM

SMILES: CCCC(C)(c1ccc(OC)cc1)c1c[nH]c2c(N)cccc12 (stereo not drawn) [Example 50, 3-[1-(4-Methoxy-phenyl)-1-methyl-butyl]-1H-indol-7-ylamine]
- Ki [1]: < 500 nM
- Ki [3]: < 500 nM

SMILES: CC(C)(c1ccccc1)c1c[nH]c2c(NS(C)(=O)=O)cccc12 [Example 78, N-[3-(1-Methyl-1-phenyl-ethyl)-1H-indol-7-yl]-methanesulfonamide]
- Ki [1]: < 500 nM
- Ki [3]: < 500 nM

SMILES: CCCC(C)(c1ccc(OC)cc1)c1c[nH]c2c(C)cccc12 (stereo not drawn) [Example 20, 3-[1-(4-Methoxy-phenyl)-1-methyl-butyl]-7-methyl-1H-indole]
- Ki [1]: < 500 nM
- Ki [3]: < 500 nM

SMILES: CC(c1ccc(F)cc1)(c1c[nH]c2c(NS(C)(=O)=O)cccc12)C1CC1 (stereo not drawn) [Example 5, N-{3-[1-Cyclopropyl-1-(4-fluoro-phenyl)-ethyl]-1H-indol-7-yl}-methanesulfonamide]
- Ki [1]: < 500 nM
- Ki [3]: < 500 nM
